Source: patent US20100222423A1, “ASPALATHIN-LIKE DIHYDROCHALCONE, EXTRACTS FROM UNFERMENTED ROOIBOS AND PROCESS FOR PREPARATION” (KNEIPP-WERKE KNEIPP-MITTEL-ZENTRALE GMBH & CO. KG, priority 2007, published 2010)

Test system: Fischer-344 rats
Assay: Tele-Stereo-EEG investigations in the rat (field potentials from frontal cortex, hippocampus, striatum, reticular formation)
Type: in vivo
Details: for effect on EEG frequencies in comparison with molecular constituents: approximately equimolar administration; for changes in EEG frequencies / power density compared with saline solution: oral single dose 3 or 6 mg/kg, up to 5 hours after application, n=6 rats
Procedure: The changes in the EEG (electroencephalography) frequencies was determined after administration of saline solution (control) and the compound of the formula I orally (3 or 6 mg/kg body weight).
The investigations were carried out analogously to the method described by W. Dimpfel (Dimpfel, W., Preclinical database of pharmaco-specific rat EEG fingerprints (Tele-Stereo-EEG). Eur. J. Med. Res. (2003) δ: 199-207) as follows: 4 Bipolar concentric electrodes together with a microplug on a common baseplate were implanted in six male adult Fischer-344 rats (converted day-night) aged 6 months. The plug served for recording a four-channel transmitter for telemetric transmission of the field potentials derived from frontal cortex, hippocampus, striatum and reticular formation. The signals were subjected to a fast Fourier transformation on a computer system (“EEG analysis” software, OS science operating system, “LabTeam” laboratory computer from MediSyst, Linden, Germany) in realtime and the power density spectra were determined in each case over 60 minutes. The division of the spectra into 6 different frequency ranges permitted the determination of pharmaco-specific changes in relation to the initial values, measured in each case before application, within these frequency bands.
Application protocol of the substances: the substances were applied orally 45 minutes after the beginning of the measurements (initial value). Five minutes later, the measurements were started again, analyzed continuously at least over the next 5 hours and collected in 60 minute periods. The test substance was applied in a dose of 3 and 6 mg/kg (compound of the formula I). The experimental series was begun with the administration of saline solution (control), which led to no abnormal change (FIG. 6).
The statistical comparison of the experiments with the results which were measured after administration of saline solution was effected with the aid of multivariant analysis according to Ahrens and Läuter (cf. H. Ahrens, J. Läuter, “Mehrdimensionale Varianzanalyse” [Multidimensional variance analysis]” (1974), Akademie Verlag, Berlin) on the basis of the changes within the individual frequency bands in all regions of the brain as variables.

Row | crossing of the blood-brain barrier (inferred from central nervous activity) (rat, oral, substance or its metabolites) | Compound | effect on EEG frequencies in comparison with molecular constituents (oral, rat) | changes in EEG frequencies / power density compared with saline solution | changes in EEG frequencies / power density compared with saline solution (listed as compound according to the formula I) | pattern of changes in electrical brain activity compared with reference medicaments (oral single dose, rat) | discriminance analysis of EEG frequency changes (four regions of the brain, 6 frequency bands, 24 variables) (rat, compared with medicaments of the database)
1 | – | O=C(CCc1ccc(O)c(O)c1)c1c(O)cc(O)c([C@@H]2O[C@H](CO)[C@@H](O)[C@H](O)[C@H]2O)c1O [aspalathin] | not by parts of the molecule | – | – | – | –
2 | evidently cross the blood-brain barrier | O=C(CCc1ccc(O)c(O)c1)c1c(O)c(C2OC(CO)C(O)C(O)C2O)c(O)c(C2c3c(O)cc(O)cc3OC(c3ccc(O)c(O)c3)C2O)c1O (centres unmarked) [compound according to formula I] | the effect can be achieved | stable changes in the power density in all areas of the brain | dose-dependent changes in the EEG frequencies | corresponded to those after administration of metanicotine, galantamine, tacrine, L-DOPA or nefopam | close to that of galantamine, tacrine and nefopam
3 | – | catechin [reference compound] | not by parts of the molecule | – | – | – | –
